≈ marks a conversion by molar mass, not a printed value. Read-outs that look alike come from different tables or passages of the source.
Assays:
[1] = system: Escherichia coli TEM3 3455E; assay: Minimum inhibitory concentration (agar 2-fold dilution); assay type: cell-based; details: TEM33455E, 20 h, read-out: Minimum Inhibitory Concentration
Description: (§1) The minimum inhibitory concentration was determined by diluting the test compounds according to 2-fold dilution, suspending them in Muller-Hinton agar medium, inoculating 2 μl of the suspension containing the test strains having 10^7 CFU (Colony Forming Unit) per 1 ml into the medium and then culturing the test strains at 37° C. for 20 hours.

[2] = system: Escherichia coli TEM1 1193E; assay: as above; assay type: cell-based; details: TEM11193E, 20 h, read-out: Minimum Inhibitory Concentration
Description: as §1

[3] = system: Acinetobacter calcoaceticus 15473A; assay: as above; assay type: cell-based; details: A. calcoaceticus 15473A, Muller-Hinton agar, 37° C., 20 hours, read-out: Minimum Inhibitory Concentration
Description: as §1

[4] = system: Staphylococcus aureus 6538P; assay: as above; assay type: cell-based; details: read-out: Minimum Inhibitory Concentration
Description: as §1

[5] = system: Pseudomonas aeruginosa 10145; assay: as above; assay type: cell-based; details: Pseudomonas aeruginosa; P. aeruginosa 10145; Muller-Hinton agar, 37° C., 20 hours; read-out: Minimum Inhibitory Concentration
Description: as §1

[6] = system: Escherichia coli 851E; assay: as above; assay type: cell-based; details: E. coli 851E, Muller-Hinton agar, 37° C., 20 hours
Description: as §1

[7] = system: Salmonella typhimurium 14028A; assay: as above; assay type: cell-based; details: Salmonella enterica; S. typhimurium 14028A; Muller-Hinton agar, 37° C., 20 hours; read-out: Minimum Inhibitory Concentration
Description: as §1

[8] = system: Proteus vulgaris 6059A; assay: as above; assay type: cell-based; details: P. vulgaris 6059A, Muller-Hinton agar, 37° C., 20 hours, read-out: Minimum Inhibitory Concentration
Description: as §1

[9] = system: Staphylococcus aureus 77; assay: as above; assay type: cell-based; details: read-out: Minimum Inhibitory Concentration
Description: as §1

[10] = system: Citrobacter diversus 2046E; assay: as above; assay type: cell-based; details: Citrobacter koseri; C. diversus 2046E; Muller-Hinton agar, 37° C., 20 hours; read-out: Minimum Inhibitory Concentration
Description: as §1

[11] = system: Serratia marcescens 1826E; assay: as above; assay type: cell-based; details: S. marcescens 1826E, Muller-Hinton agar, 37° C., 20 hours, read-out: Minimum Inhibitory Concentration
Description: as §1

[12] = system: Streptococcus faecalis 29212A; assay: as above; assay type: cell-based; details: Enterococcus faecalis; S. faecalis 29212A; Muller-Hinton agar, 37° C., 20 hours; read-out: Minimum Inhibitory Concentration
Description: as §1

[13] = system: Enterobacter cloacae P99; assay: as above; assay type: cell-based; details: P99, 20 h, read-out: Minimum Inhibitory Concentration
Description: as §1

[14] = system: Enterobacter cloacae IND + VE 1194E; assay: as above; assay type: cell-based; details: E. cloacae IND + VE 1194E, Muller-Hinton agar, 37° C., 20 hours, read-out: Minimum Inhibitory Concentration
Description: as §1

[15] = system: Escherichia coli TEM5 3739E; assay: as above; assay type: cell-based; details: TEM53739E, 20 h, read-out: Minimum Inhibitory Concentration
Description: as §1

[16] = system: Escherichia coli 10536; assay: as above; assay type: cell-based; details: read-out: Minimum Inhibitory Concentration
Description: as §1

[17] = system: Pseudomonas aeruginosa 1912E; assay: as above; assay type: cell-based; details: P. aeruginosa 1912E, Muller-Hinton agar, 37° C., 20 hours, read-out: Minimum Inhibitory Concentration
Description: as §1

[18] = system: Escherichia coli 3190Y; assay: as above; assay type: cell-based; details: E. coli 3190Y, Muller-Hinton agar, 37° C., 20 hours, read-out: Minimum Inhibitory Concentration
Description: as §1

[19] = system: Staphylococcus aureus epidermidis 887E; assay: as above; assay type: cell-based; details: S. aureus epidermidis 887E, Muller-Hinton agar, 37° C., 20 hours, read-out: Minimum Inhibitory Concentration
Description: as §1

[20] = system: Pseudomonas aeruginosa 6065; assay: as above; assay type: cell-based; details: Pseudomonas aeruginosa; P. aeruginosa 6065; Muller-Hinton agar, 37° C., 20 hours; read-out: Minimum Inhibitory Concentration
Description: as §1

[21] = system: Klebsiella aerogenes K1 + 1082E; assay: as above; assay type: cell-based; details: 20 h, read-out: Minimum Inhibitory Concentration
Description: as §1

[22] = system: Staphylococcus aureus 241; assay: as above; assay type: cell-based; details: Staphylococcus aureus; S. aureus 241; Muller-Hinton agar, 37° C., 20 hours; read-out: Minimum Inhibitory Concentration
Description: as §1

[23] = system: Klebsiella aerogenes SHV-1 1976E; assay: as above; assay type: cell-based; details: SHV11976E, K. aerogenes SHV-1 1976E, Muller-Hinton agar, 37° C., 20 hours
Description: as §1

[24] = system: Staphylococcus aureus giorgio; assay: as above; assay type: cell-based; details: S. aureus giorgio, Muller-Hinton agar, 37° C., 20 hours, read-out: Minimum Inhibitory Concentration
Description: as §1

[25] = system: Escherichia coli TEM9 2639E; assay: as above; assay type: cell-based; details: TEM92639E, 20 h, read-out: Minimum Inhibitory Concentration
Description: as §1

[26] = system: Escherichia coli TEM7 3457E; assay: as above; assay type: cell-based; details: TEM73457E, 20 h, read-out: Minimum Inhibitory Concentration
Description: as §1

[27] = Pharmacokinetic properties in rats (blood concentration by agar well biological assay); design: species or system SD rats (male); details: rat, in vivo, iv, 20 mg/kg
Description: The pharmacokinetic properties of the compound of the present invention were determined using SD rats (.male.) weighing 230±10 g. Specifically,the test samples were injected into femoral vein in an amount of 20 mg/kg to 4 to 5 test animals. Blood was taken from femoral vein 1, 2.5, 5, 10, 20, 40, 60, 120 and 180 minutes after administration and then subjected to a biological assay using agar well method to measure the blood concentration.

[28] = S. aureus 6538P, Muller-Hinton agar, 37° C., 20 hours
[29] = Staphylococcus aureus, S. aureus 77, Muller-Hinton agar, 37° C., 20 hours
[30] = Escherichia coli, E. coli 10536, Muller-Hinton agar, 37° C., 20 hours

SMILES	MIC [1]	MIC [2]	MIC [3]	MIC [5]	MIC [6]	MIC [7]	MIC [8]	MIC [10]	MIC [11]	MIC [12]	MIC [13]	MIC [14]	MIC [15]	MIC [17]	MIC [18]	MIC [19]	MIC [20]	MIC [21]	MIC [22]	MIC [23]	also measured
Nc1nc(/C(=N/O[C@H](C(=O)O)c2ccc(O)c(O)c2)C(=O)N[C@@H]2C(=O)N3C(C(=O)[O-])=C(/C=C/C[n+]4cnc(N)c(N)c4N)CS[C@H]23)cs1 [Compound I-5a, 7-[(Z)-2-(2-aminothiazol-4-yl)-2-(α-carboxy-3,4-dihydroxybenzyloxyimino)acetamido]-3-[(E)-3-(4,5,6-triaminopyrimidinium-1-yl)-1-propen-1-yl]-3-cephem-4-carboxylate]	0.063 µg/mL (≈ 0.0902 µM)	0.063 µg/mL (≈ 0.0902 µM)	0.5 µg/mL (≈ 0.716 µM)	0.25 µg/mL (≈ 0.358 µM)	0.063 µg/mL (≈ 0.0902 µM)	0.03 µg/mL (≈ 0.0429 µM)	0.063 µg/mL (≈ 0.0902 µM)	0.13 µg/mL (≈ 0.186 µM)	0.5 µg/mL (≈ 0.716 µM)	4 µg/mL (≈ 5.72 µM)	8 µg/mL (≈ 11.4 µM)	1 µg/mL	0.5 µg/mL (≈ 0.716 µM)	0.5 µg/mL (≈ 0.716 µM)	0.063 µg/mL (≈ 0.0902 µM)	64 µg/mL (≈ 91.6 µM)	4 µg/mL (≈ 5.72 µM)	0.063 µg/mL (≈ 0.0902 µM)	128 µg/mL (≈ 183 µM)	0.5 µg/mL (≈ 0.716 µM)	MIC [4, 28]: 0.5 µg/mL (≈ 0.716 µM); MIC [9, 29]: 2 µg/mL (≈ 2.86 µM); MIC [16, 30]: 0.016 µg/mL (≈ 0.0229 µM); MIC [24]: 0.25 µg/mL (≈ 0.358 µM); MIC [25]: 1 µg/mL (≈ 1.43 µM); MIC [26]: 0.031 µg/mL (≈ 0.0444 µM); AUC [27]: 49600 ng·h/mL; half-life [27]: 41 min
Nc1cc(N)[n+](C/C=C/C2=C(C(=O)[O-])N3C(=O)[C@@H](NC(=O)/C(=N\O[C@H](C(=O)O)c4ccc(O)c(O)c4)c4csc(N)n4)[C@H]3SC2)cn1 [Compound I-1a, 7-[(Z)-2-(2-aminothiazol-4-yl)-2-(α-carboxy-3,4-dihydroxybenzyloxyimino)acetamido]-3-[(E)-3-(4,6-diaminopyrimidinium-1-yl)-1-propen-1-yl]-3-cephem-4-carboxylate]	0.13 µg/mL (≈ 0.19 µM)	0.031 µg/mL (≈ 0.0453 µM)	1 µg/mL (≈ 1.46 µM)	0.25 µg/mL (≈ 0.366 µM)	0.031 µg/mL (≈ 0.0453 µM)	0.016 µg/mL (≈ 0.0234 µM)	0.063 µg/mL (≈ 0.0921 µM)	0.13 µg/mL (≈ 0.19 µM)	0.25 µg/mL (≈ 0.366 µM)	4 µg/mL (≈ 5.85 µM)	32 µg/mL (≈ 46.8 µM)	4 µg/mL	0.5 µg/mL (≈ 0.731 µM)	0.5 µg/mL (≈ 0.731 µM)	0.031 µg/mL (≈ 0.0453 µM)	64 µg/mL (≈ 93.6 µM)	1 µg/mL (≈ 1.46 µM)	0.063 µg/mL (≈ 0.0921 µM)	64 µg/mL (≈ 93.6 µM)	0.13 µg/mL (≈ 0.19 µM)	MIC [4, 28]: 0.5 µg/mL (≈ 0.731 µM); MIC [9, 29]: 4 µg/mL (≈ 5.85 µM); MIC [16, 30]: ≤ 0.008 µg/mL; MIC [24]: 0.5 µg/mL (≈ 0.731 µM); MIC [25]: 2 µg/mL (≈ 2.93 µM); MIC [26]: 0.13 µg/mL (≈ 0.19 µM); AUC [27]: 32700 ng·h/mL; half-life [27]: 34 min
Nc1nc(/C(=N/O[C@@H](C(=O)O)c2ccc(O)c(O)c2)C(=O)N[C@@H]2C(=O)N3C(C(=O)[O-])=C(/C=C/C[n+]4cnc(N)c(N)c4N)CS[C@H]23)cs1 [Compound I-5b, 7-[(Z)-2-(2-aminothiazol-4-yl)-2-(α-carboxy-3,4-dihydroxybenzyloxyimino)acetamido]-3-[(E)-3-(4,5,6-triaminopyrimidinium-1-yl)-1-propen-1-yl]-3-cephem-4-carboxylate]	0.063 µg/mL (≈ 0.0902 µM)	0.25 µg/mL (≈ 0.358 µM)	1 µg/mL (≈ 1.43 µM)	2 µg/mL (≈ 2.86 µM)	0.13 µg/mL (≈ 0.186 µM)	0.031 µg/mL (≈ 0.0444 µM)	1 µg/mL (≈ 1.43 µM)	4 µg/mL (≈ 5.72 µM)	2 µg/mL (≈ 2.86 µM)	8 µg/mL (≈ 11.4 µM)	16 µg/mL (≈ 22.9 µM)	8 µg/mL	1 µg/mL (≈ 1.43 µM)	1 µg/mL (≈ 1.43 µM)	0.13 µg/mL (≈ 0.186 µM)	64 µg/mL (≈ 91.6 µM)	8 µg/mL (≈ 11.4 µM)	1 µg/mL (≈ 1.43 µM)	128 µg/mL (≈ 183 µM)	1 µg/mL (≈ 1.43 µM)	MIC ([4]; 6538P, 20 h): 0.5 µg/mL (≈ 0.716 µM); MIC ([9]; Staphylococcus aureus, 77, 20 h): 2 µg/mL (≈ 2.86 µM); MIC [16, 30]: 0.13 µg/mL (≈ 0.186 µM); MIC [24]: 0.5 µg/mL (≈ 0.716 µM); MIC [25]: 1 µg/mL (≈ 1.43 µM); MIC [26]: 0.25 µg/mL (≈ 0.358 µM)
Nc1cc(N)[n+](C/C=C/C2=C(C(=O)[O-])N3C(=O)[C@@H](NC(=O)/C(=N\O[C@@H](C(=O)O)c4ccc(O)c(O)c4)c4csc(N)n4)[C@H]3SC2)cn1 [Compound I-1b, 7-[(Z)-2-(2-aminothiazol-4-yl)-2-(α-carboxy-3,4-dihydroxybenzyloxyimino)acetamido]-3-[(E)-3-(4,6-diaminopyrimidinium-1-yl)-1-propen-1-yl]-3-cephem-4-carboxylate]	0.5 µg/mL (≈ 0.731 µM)	0.25 µg/mL (≈ 0.366 µM)	4 µg/mL (≈ 5.85 µM)	32 µg/mL (≈ 46.8 µM)	0.13 µg/mL (≈ 0.19 µM)	0.13 µg/mL (≈ 0.19 µM)	0.5 µg/mL (≈ 0.731 µM)	16 µg/mL (≈ 23.4 µM)	2 µg/mL (≈ 2.93 µM)	8 µg/mL (≈ 11.7 µM)	128 µg/mL (≈ 187 µM)	64 µg/mL	2 µg/mL (≈ 2.93 µM)	64 µg/mL (≈ 93.6 µM)	0.13 µg/mL (≈ 0.19 µM)	64 µg/mL (≈ 93.6 µM)	32 µg/mL (≈ 46.8 µM)	2 µg/mL (≈ 2.93 µM)	128 µg/mL (≈ 187 µM)	1 µg/mL (≈ 1.46 µM)	MIC [4, 28]: 0.5 µg/mL (≈ 0.731 µM); MIC [9, 29]: 2 µg/mL (≈ 2.93 µM); MIC ([16]; Escherichia coli, 10536, 20 h): 0.13 µg/mL (≈ 0.19 µM); MIC [24]: 0.5 µg/mL (≈ 0.731 µM); MIC [25]: 2 µg/mL (≈ 2.93 µM); MIC [26]: 0.25 µg/mL (≈ 0.366 µM)
